Values quoted from earlier work, collected in EP0331593A1, “Process for the preparation of hydroxybenzaldehydes by hydrocarbonylation” (RHONE-POULENC CHIMIE, priority 1988, dated 1989).
Like-named read-outs stand apart in the source and are kept apart here.

Columns and labels:
[1] = in water, generally 25°C
[2] = phosphine

Compound | pKa * (pka del'acide conjugué de l'amine tertiaire) ([1]; Tableau I) | pKa * (pka de l'acide conjugé de l'amine tertiaire) ([1]; Tableau II) | pKa * (pka del'acide conjugué de l'amine tertiaire) ([1]; Tableau III) | pKa * (pka de l'acide conjugé de l'amine tertiaire) ([1]; Tableau IV) | pKa à 25°C [2]
Cc1ccnc(C)c1 [Diméthyl-2,4 Pyridine] | 6,99 | 6,99 | 6,99 | 6,99 | –
Cc1ccncc1C [Diméthyl-3,4 Pyridine] | 6,57 | 6,57 | – | – | –
Cc1cccc(P(c2cccc(C)c2)c2cccc(C)c2)c1 [tris(méthyl-3 phényl)phosphine] | – | – | – | – | 3,3
c1ccc(P(c2ccccc2)c2ccccc2)cc1 [triphénylphosphine] | – | – | – | – | 2,73
Cc1ccncc1 [Gamma Picoline] | 6,02 | – | – | – | –
c1cnccn1 [Pyrazine] | 0,65 | – | 0,65 | 0,65 | –
Cc1cccc(C)n1 [Diméthyl-2,6 Pyridine] | 6,73 | 6,73 | – | – | –
